For assay [1], the system named is mock transfected cells. The assay is described as follows: radioligand binding to mock transfected HEK293T cells. Further details: species or system human. The note with it: for specific binding into mock transfected cells: in words. The protocol: HEK293T cells were seeded into 24-well culture plates coated with poly-D-Lys at 1×10^5 cells/well and were cultured over-night. […] Forty-eight hours after transfection, the transfected monolayer cells were rinsed with the assay buffer (Hanks' balanced salt solution containing 20 mM HEPES, 0.2% BSA and 100 μg/ml bacitracin, pH 7.4). The cells were then incubated in 250 μl/well of the same buffer with [^125I]-MCH (100 pM, NEN Life Science Products, Boston, Mass.) or [^125I]-[Phe^13, Tyr^19]-MCH (100 pM, NEN Life Science Products) for 30 minutes at 37° C. After the incubation, the cells were washed three times with the ice cold assay buffer and lysed with 500 μl/well of 2 M NaOH. The lysates were transferred into test tubes and the cell-bound radioactivity was measured by a COBLA Quantum γ-counter (Packard Instrument, Meriden, Conn.).

The test system of assay [2] is non-transfected cells. The assay is described as follows: intracellular calcium (fura-2) in non-transfected HEK293T cells. The class given is cell-based, human. The conditions noted are these: data not shown. The source says:
The entire coding sequence of rhesus MCH-2R was cloned into BamHI-NotI site of pEF1/[…] C plasmid vector (Invitrogen). The resultant construct was transfected into HEK293T cells using LipofectAmine PLUS (Life Technologies, Rockville, Md.) according to the manufacture's instructions. Human embryonic kidney cells constitutively expressing SV40 large T antigen (HEK-293T) were maintained in Dulbecco's modified Eagle medium (Life Technologies) supplemented with 10% fetal bovine serum, 100 units/ml penicillin-G and 100 μg/ml streptomycin at 37° C. with 5% CO2 in a humidified atmosphere. […] The cells were suspended with the buffer containing 2 μM fura-2 acetoxymethylester (Dojin, Kumamoto, Japan) into the cell density of 1.0×10^7 cells/ml and incubated at 37° C. for 60 minutes with gently shaking. The fura-2-loaded cells were washed twice with the buffer and re-suspended with the buffer to 1.0×10^6 cells/ml. 0.5 ml of the resultant suspension was stirred continuously at 37° C. in a glass cuvette during the measurement. […] Data were analyzed using the software GraphPad Prism Version 3.0 (GraphPad Software, Inc., San Diego, Calif., USA).
(Calcium flux is commonly read through the fluorescence of an indicator in the cells.)

Assay [3] concerns ferret MCH-2R. Kind of assay: membrane radioligand binding assay, transfected COS-7 cells, ferret MCH-2R. The conditions noted are these: COS-7 membranes. The protocol:
Membrane binding assays were performed on transiently-transfected COS-7 cells using human or ferret MCH-2R in the plasmid vector pCI-neo (Promega, Madison, Wis.), COS-7 cells were cultured in Dulbecco's modified Eagle medium (Gibco BRL, Rockville, Md.) with 10% heat inactivated fetal calf serum.
A suspension of 7×10^6 COS-7 cells were transfected with 20 μg of pCI-neo/MCH-2R plasmid by electroporation. (Strader, et al., 1987. Proc. Natl. Acad. Sci. USA 84, 4384–4388). Cells were harvested after 60–72 hours. Membranes were prepared from transient and stable transfectants by hypotonic lysis, frozen in liquid nitrogen, and stored at −80° C. (MacNeil, et al., 1994. Biochem. Biophys. Res. Commun. 198, 328–334.)
A binding assay was set up in 96 well plates. Total volume per binding assay point was 200 μL. […] Dose response curves were from 10 μM in 5 fold or 3-fold dilution series for 11 points. The mixture was shaken for 5 minutes on a platform shaker, and incubated at room temperature for 1 hour. Filter plates were presoaked in 1% PEI. The binding reaction was harvested onto filters using Packard Filtermate harvester (Meriden, Conn.). The filters were then washed in 50 mM Tris pH 7.4, 10 mM MgCl2, 2 mM EDTA, 0.04% Tween 20, 6–8 times per plate. […] 30 μL microscintillant was added per well and counted for 1.5–3 minutes in inverted format on Packard TopCount. […]

The subject of assay [4] is ferret MCH-2R. The assay is described as follows: aequorin bioluminescence functional assay, ferret MCH-2R. The class given is cell-based. The conditions noted are these: aequorin HEK-293 cells, read-out: Function (EC50). The source says: The aequorin bioluminescence assay is a reliable test for identifying G-protein-coupled receptors which couple through the G protein subunit family consisting of Gq and G11 which leads to the activation of phospholipase C, mobilization of intracellular calcium, and activation of protein kinase C. (Ungrin, et al., Anal. Biochem. 1999. 272:34–42.)
For expression studies, HEK-293 cells stably expressing the aequorin reporter protein were transiently transfected with MCH-2R human or ferret expression plasmid or stable cell lines were derived (human MCH-2R). The assay was performed using a Luminoscan RT luminometer (Labsystems Inc., Gaithersburg, Md.).
293AEQ17/Aequorin cells (Button, et al., 1993. Cell Calcium 14, 663–671), were cultured for 72 hours and the apo-aequorin in the cells was charged for 1 hour with coelenterazine (10 μM) under reducing conditions (300 μM reduced glutathione) in ECB buffer (140 mM NaCl, 20 mM KCl, 20 mM HEPES-NaOH, pH 7.4, 5 mM glucose, 1 mM MgCl2, 1 mM CaCl2, 0.1 mg/mL bovine serum albumin). […] 100 μL of cell suspension (corresponding to 5×10^4 cells) was then injected into the test plate containing ligands, and the integrated light emission was recorded over 30 seconds, in 0.5-second units. 20 μL of lysis buffer (0.1% final Triton X-100 concentration) was then injected and the integrated light emission recorded over 10 seconds, in 0.5-second units. […]

Assay [5] has as its target T1, rhesus MCH-2R (Macaca mulatta, UniProt Q8MJ88).
T1 construct: expressed in transfected cells; host or cells: HEK293T
The assay is described as follows: radioligand binding to adherent HEK293T cells expressing rhesus MCH-2R. Further details: species or system rhesus monkey. As to the method: HEK293T cells were seeded into 24-well culture plates coated with poly-D-Lys at 1×10^5 cells/well and were cultured over-night. The adherent cells were transfected with pEF1/V5-HisC/rhesus MCH-2R plasmid (see Example 2). Forty-eight hours after transfection, the transfected monolayer cells were rinsed with the assay buffer (Hanks' balanced salt solution containing 20 mM HEPES, 0.2% BSA and 100 μg/ml bacitracin, pH 7.4). The cells were then incubated in 250 μl/well of the same buffer with [^125I]-MCH (100 pM, NEN Life Science Products, Boston, Mass.) or [^125I]-[Phe^13, Tyr^19]-MCH (100 pM, NEN Life Science Products) for 30 minutes at 37° C. After the incubation, the cells were washed three times with the ice cold assay buffer and lysed with 500 μl/well of 2 M NaOH. The lysates were transferred into test tubes and the cell-bound radioactivity was measured by a COBLA Quantum γ-counter (Packard Instrument, Meriden, Conn.).

Where [6] appears, read: 100 pM radioligand, Mock transfected cells.

Values joined by “and” are separate entries in the source; they are usually repeats but may differ in a detail not shown here. Equal entries are not always repeated.

T1 sequence (Q8MJ88 whole entry): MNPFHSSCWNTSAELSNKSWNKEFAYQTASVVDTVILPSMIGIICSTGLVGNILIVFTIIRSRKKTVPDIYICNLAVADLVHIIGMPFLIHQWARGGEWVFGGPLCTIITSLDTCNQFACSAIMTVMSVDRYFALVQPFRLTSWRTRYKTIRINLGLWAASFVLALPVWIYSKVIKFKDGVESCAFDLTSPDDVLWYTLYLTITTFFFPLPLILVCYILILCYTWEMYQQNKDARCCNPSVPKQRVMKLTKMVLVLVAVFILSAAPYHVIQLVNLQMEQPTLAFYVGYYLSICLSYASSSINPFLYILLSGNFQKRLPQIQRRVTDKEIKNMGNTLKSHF
ferret MCH-2R, sequence (as listed by the source): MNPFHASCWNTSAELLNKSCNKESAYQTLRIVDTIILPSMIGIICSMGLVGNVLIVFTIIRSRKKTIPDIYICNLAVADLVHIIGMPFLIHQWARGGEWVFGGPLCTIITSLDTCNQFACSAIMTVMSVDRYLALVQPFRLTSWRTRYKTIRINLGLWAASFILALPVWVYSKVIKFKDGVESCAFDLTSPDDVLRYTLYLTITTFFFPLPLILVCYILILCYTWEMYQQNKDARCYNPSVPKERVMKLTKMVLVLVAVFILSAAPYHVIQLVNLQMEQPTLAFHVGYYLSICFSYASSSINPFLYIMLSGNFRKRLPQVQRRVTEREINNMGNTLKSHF

With [^125I]-MCH, the “[125I]-MCH binding, Total binding” value in assay [1] (setting [6]) was 209.9 cpm and 215.8 cpm and 239.8 cpm. The “[125I]-MCH binding, Nonspecific binding” value in assay [1] (100 pM radioligand, in the presence of 1 μM cold MCH, Mock transfected cells) was 172.0 cpm and 180.9 cpm and 184.1 cpm. For the same substance, the “specific binding into mock transfected cells” value in assay [1] was “not observed”.

With Melanin-concentrating hormone [MCH], the “[Ca2+]i increase in non-transfected cells” value in assay [2] was “failed to induce a detectable [Ca^2+]i increase”. Besides, the IC50 in assay [3] was 55 nM. For the same substance, in assay [4], the EC50 was 69 nM.

On to [^125I]-[Phe^13, Tyr^19]-MCH, for which the “[125I]-[Phe13, Tyr19]-MCH binding, Total binding” value in assay [1] (setting [6]) was 708.9 cpm and 663.3 cpm and 771.5 cpm; in assay [5] (100 pM radioligand, 30 minutes at 37° C., rhesus MCH-2R transfected cells) it was 18031.2 cpm and 18749.0 cpm and 17985.4 cpm. Further, the “[125I]-[Phe13, Tyr19]-MCH binding, Nonspecific binding” value in assay [1] (100 pM radioligand, in the presence of 1 μM cold [Phe13, Tyr19]-MCH, Mock transfected cells) is 539.7 cpm and 537.7 cpm and 557.8 cpm; in assay [5] (100 pM radioligand, in the presence of 1 μM cold [Phe13, Tyr19]-MCH, rhesus MCH-2R transfected cells), 567.4 cpm and 717.0 cpm and 598.0 cpm. Further, the “specific binding into mock transfected cells” value in assay [1] is reported as “not observed”. In addition, in assay [5] (in words), the “binding to HEK293T cells expressing rhesus MCH-2R” value is “good windows”.

One may read the IC50 as the point on the concentration scale where inhibition reaches its midpoint. For orientation: EC50 means the concentration that produces a half-maximal response.

These data come from patent US7208282B2 (priority 2001, dated 2007).
